Results published in patent publication US8435978B2, “Substituted sulfonamide compounds” (Gruenenthal GmbH, priority 2006, dated 2013).
Structures can show the parent of a compound that is named as a salt. Where two headings read alike, the source gives them in different places.

Legend:
[1] = biological target: T1, human B1R receptor (Homo sapiens, UniProt P46663); assay: Functional study on the bradykinin receptor 1 (B1R), FLIPR Ca2+ assay, hB1R cells; assay type: cell-based; details: agonist Lys-Des-Arg9-bradykinin 0.5 nM, % inhibition compared with the maximum achievable inhibition; for inhibition at 10 µM: read-out: B1R Antagonism, human [10 μM] % Inhibition
T1 construct: host or cells: CHO K1 cells (Chinese hamster ovary), stably transfected
T1 sequence (P46663 1-353): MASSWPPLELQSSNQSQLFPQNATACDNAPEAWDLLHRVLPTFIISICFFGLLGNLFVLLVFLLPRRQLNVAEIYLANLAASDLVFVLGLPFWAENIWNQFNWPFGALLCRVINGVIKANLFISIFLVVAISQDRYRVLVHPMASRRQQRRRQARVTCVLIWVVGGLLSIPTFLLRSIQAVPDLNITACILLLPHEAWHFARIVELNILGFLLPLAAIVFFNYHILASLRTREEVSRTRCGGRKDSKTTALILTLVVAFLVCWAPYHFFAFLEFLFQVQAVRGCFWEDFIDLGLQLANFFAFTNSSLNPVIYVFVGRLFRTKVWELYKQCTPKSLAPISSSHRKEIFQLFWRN
How it was run: (§1)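 FLIPR Ca2+ assay in recombinant CHO K1 cells (human or rat B1R), Fluo-4 dye; 10 μM compound, 10 min, then EC-level agonist per species (0.5 nM Lys-Des-Arg9-BK human / 100 nM Des-Arg9-BK rat). Output: % inhibition vs maximum.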

[2] = biological target: T2, B1R receptor of the rat (Rattus norvegicus, UniProt P97583); assay: Functional study on the bradykinin receptor 1 (B1R), FLIPR Ca2+ assay, rB1R cells; assay type: cell-based; details: agonist Des-Arg9-bradykinin 100 nM, % inhibition compared with the maximum achievable inhibition; for inhibition at 10 µM: read-out: B1R Antagonism, rat [10 μM] % Inhibition
T2 construct: host or cells: CHO K1 cells (Chinese hamster ovary), stably transfected
T2 sequence (P97583 1-337): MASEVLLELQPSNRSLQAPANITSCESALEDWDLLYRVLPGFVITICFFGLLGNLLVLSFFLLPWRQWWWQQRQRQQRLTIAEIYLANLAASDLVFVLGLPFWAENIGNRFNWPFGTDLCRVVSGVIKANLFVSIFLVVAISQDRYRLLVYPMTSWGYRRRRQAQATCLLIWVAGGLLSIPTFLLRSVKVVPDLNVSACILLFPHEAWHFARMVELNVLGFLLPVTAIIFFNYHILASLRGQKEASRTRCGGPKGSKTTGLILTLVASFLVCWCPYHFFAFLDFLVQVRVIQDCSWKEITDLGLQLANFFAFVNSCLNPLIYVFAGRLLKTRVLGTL
How it was run: as §1

[3] = test substance 10 μM, hB1R CHO K1 cells
[4] = test substance 10 μM, rB1R CHO K1 cells

Row | Compound | inhibition at 10 µM ([1]; CHO-K1, test substance 10 μM) [%] | inhibition at 10 µM ([2]; CHO-K1, test substance 10 μM) [%] | further results
1 | COc1cc(C)c(S(=O)(=O)N2CCCCC2COCC(=O)Nc2ccc(-n3ccnc3C)cc2)c(C)c1 (stereo not shown) [Example 427, 2-((1-(4-methoxy-2,6-dimethylphenylsulfonyl)piperidin-2-yl)methoxy)-N-(4-(2-methyl-1H-imidazol-1-yl)phenyl)acetamide] | 102 | 98.8 | 
2 | O=C(COCC1CCCCN1S(=O)(=O)c1c(Cl)cccc1Cl)N1CCCN(Cc2ccccc2)CC1 (stereo not shown) [Example 529, 1-(4-benzyl-1,4-diazepan-1-yl)-2-((1-(2,6-dichlorophenylsulfonyl)piperidin-2-yl)methoxy)ethanone] | 106 | 101 | 
3 | Cc1c(S(=O)(=O)N2CCCCC2COCC(=O)N2CCN(C3CCN(C)CC3)CC2)sc2ccc(Cl)cc12 (stereo not shown) [Example 151, 2-((1-(5-chloro-3-methylbenzo[b]thiophen-2-ylsulfonyl)piperidin-2-yl)methoxy)-1-(4-(1-methylpiperidin-4-yl)piperazin-1-yl)ethanone dihydrochloride] | 107 | 103 | 
4 | COc1cc(C)c(S(=O)(=O)N2CCCC2COCC(=O)NC(CN2CCCC2)c2ccccc2)c(C)c1 (stereo not shown) [Example 505, 2-((1-(4-methoxy-2,6-dimethylphenylsulfonyl)pyrrolidin-2-yl)methoxy)-N-(1-phenyl-2-(pyrrolidin-1-yl)ethyl)acetamide] | 74 | 101 | 
5 | CN1CCC(N2CCN(C(=O)COCC3CCCN3S(=O)(=O)c3c(Cl)cccc3Cl)CC2)CC1 (stereo not shown) [Example 567, 2-((1-(2,6-dichlorophenylsulfonyl)pyrrolidin-2-yl)methoxy)-1-(4-(1-methylpiperidin-4-yl)piperazin-1-yl)ethanone] | 104 | 102 | 
6 | Cc1cc(C)c(S(=O)(=O)N2CCCCC2COCC(=O)NCC2CCCN(Cc3ccccc3)C2)c(C)c1 (stereo not shown) [Example 12, N-(1-benzyl-piperidin-3-ylmethyl)-2-[1-(2,4,6-trimethyl-phenylsulfonyl)-piperidin-2-ylmethoxy]-acetamide] | 99.1 | 74.9 | 
7 | CN(C)CCN1CCN(C(=O)COCC2CCCN2S(=O)(=O)c2c(Cl)cccc2Cl)CC1 (stereo not shown) [Example 452, 2-((1-(2,6-dichlorophenylsulfonyl)pyrrolidin-2-yl)methoxy)-1-(4-(2-(dimethylamino)ethyl)piperazin-1-yl)ethanone] | 105 | 95.2 | 
8 | 2-((1-(2,6-dichlorophenylsulfonyl)piperidin-2-yl)methoxy)-N-(2-(piperidin-1-yl)ethyl)acetamide [Example 440] |  |  | B1R Antagonism, human [10 μM] % Inhibition [1, 3]: 98.07%; B1R Antagonism, rat [10 μM] % Inhibition [2, 4]: 95.62%
9 | CN(C(=O)COCC1CCCCN1S(=O)(=O)c1c(Cl)cc(Cl)cc1Cl)C(CN1CCCC1)c1ccccc1 (stereo not shown) [Example 392, N-methyl-N-(1-phenyl-2-(pyrrolidin-1-yl)ethyl)-2-((1-(2,4,6-trichlorophenylsulfonyl)piperidin-2-yl)methoxy)acetamide] | 101 | 99.1 | 
10 | COc1cc(C)c(S(=O)(=O)N2CCCCC2COCC(=O)NCc2ccccc2N2CCOCC2)c(C)c1 (stereo not shown) [Example 435, 2-((1-(4-methoxy-2,6-dimethylphenylsulfonyl)piperidin-2-yl)methoxy)-N-(2-morpholinobenzyl)acetamide] | 6.23 | 99.6 | 
11 | COc1cc(C)c(S(=O)(=O)N2CCCCC2COCC(=O)NC(CN(C)C)c2ccccc2)c(C)c1 (stereo not shown) [Example 261, N-(2-(dimethylamino)-1-phenylethyl)-2-((1-(4-methoxy-2,6-dimethylphenylsulfonyl)piperidin-2-yl)methoxy)acetamide] | 78.9 | 98.9 | 
12 | COc1cc(C)c(S(=O)(=O)N2CCCC2COCC(=O)NCc2ccc(N3CCN(C)CC3)cc2)c(C)c1 (stereo not shown) [Example 302, 2-((1-(4-methoxy-2,6-dimethylphenylsulfonyl)pyrrolidin-2-yl)methoxy)-N-(4-(4-methylpiperazin-1-yl)benzyl)acetamide] |  |  | B1R Antagonism, human [10 μM] % Inhibition [1, 3]: 100.69%; B1R Antagonism, rat [10 μM] % Inhibition [2, 4]: 102.41%
13 | COc1ccc(S(=O)(=O)N2Cc3ccccc3C[C@H]2COCC(=O)N2CCN(C3CCN(C)CC3)CC2)cc1 [Example 142, (S)-2-((2-(4-methoxyphenylsulfonyl)-1,2,3,4-tetrahydroisoquinolin-3-yl)methoxy)-1-(4-(1-methylpiperidin-4-yl)piperazin-1-yl)ethanone] | 89.9 | 63 | 
14 | COc1ccc(S(=O)(=O)N2CCCCC2COCC(=O)Nc2ccc(NC(=O)CN3CCCCC3)c(C)c2)cc1 (stereo not shown) [Example 557, 2-((1-(4-methoxyphenylsulfonyl)piperidin-2-yl)methoxy)-N-(3-methyl-4-(2-(piperidin-1-yl)acetamideo)phenyl)acetamide] |  |  | B1R Antagonism, human [10 μM] % Inhibition [1, 3]: 29.73%; B1R Antagonism, rat [10 μM] % Inhibition [2, 4]: 87.56%
15 | Cc1cccc(Cl)c1S(=O)(=O)N1CCCCC1COCC(=O)N1CCN(C2CCN(C)CC2)CC1 (stereo not shown) [Example 109, 2-((1-(2-chloro-6-methylphenylsulfonyl)piperidin-2-yl)methoxy)-1-(4-(1-methylpiperidin-4-yl)piperazin-1-yl)ethanone] | 103 | 102 | 
16 | COc1cc(C)c(S(=O)(=O)N2CCCCC2COCC(=O)N2CCN(C)CC2c2ccccc2)c(C)c1 (stereo not shown) [Example 388, 2-((1-(4-methoxy-2,6-dimethylphenylsulfonyl)piperidin-2-yl)methoxy)-1-(4-methyl-2-phenylpiperazin-1-yl)ethanone] | 22.9 | 101 | 
17 | COc1cccc(N2CCN(C(=O)COCC3CCCCN3S(=O)(=O)c3c(Cl)cccc3Cl)CC2)c1 (stereo not shown) [Example 317, 2-((1-(2,6-dichlorophenylsulfonyl)piperidin-2-yl)methoxy)-1-(4-(3-methoxyphenyl)piperazin-1-yl)ethanone] | 92.2 | 100 | 
18 | N-(3-(1H-benzo[d]imidazol-2-yl)propyl)-2-((1-(4-methoxy-2,6-dimethylphenylsulfonyl)piperidin-2-yl)methoxy)acetamide [Example 525] |  |  | B1R Antagonism, human [10 μM] % Inhibition [1, 3]: 15.41%; B1R Antagonism, rat [10 μM] % Inhibition [2, 4]: 102.31%
19 | Cc1cc(Br)cc(C)c1S(=O)(=O)N1CCCCC1COCC(=O)N1CCC(CCN2CCCC2)CC1 (stereo not shown) [Example 149, 2-((1-(4-bromo-2,6-dimethylphenylsulfonyl)piperidin-2-yl)methoxy)-1-(4-(2-(pyrrolidin-1-yl)ethyl)piperidin-1-yl)ethanone] | 99.4 | 100 | 
20 | COc1cc(C)c(S(=O)(=O)N2CCCCC2COCC(=O)N2CCC(=O)CC2)c(C)c1 (stereo not shown) [Example 116, 1-(2-((1-(4-methoxy-2,6-dimethylphenylsulfonyl)piperidin-2-yl)methoxy)acetyl)piperidin-4-one] |  |  | inhibition at 10 µM [1, 3]: 74.2%; inhibition at 10 µM [2, 4]: 101%
21 | COc1cc(C)c(S(=O)(=O)N2CCCCC2COCC(=O)NCC(c2ccccc2Cl)N2CCOCC2)c(C)c1 (stereo not shown) [Example 251, N-(2-(2-chlorophenyl)-2-morpholinoethyl)-2-((1-(4-methoxy-2,6-dimethylphenylsulfonyl)piperidin-2-yl)methoxy)acetamide] | 45.8 | 98.5 | 
22 | CN1CCC(N2CCN(C(=O)COCC3CCCCN3S(=O)(=O)c3cccc(C(F)(F)F)c3)CC2)CC1 (stereo not shown) [Example 22, 1-[4-(1-methyl-piperidin-4-yl)-piperazin-1-yl]-2-[1-(3-trifluoromethyl-phenylsulfonyl)-piperidin-2-ylmethoxy]-ethanone] | 92.6 | 21.4 | 
23 | COc1cc(C)c(S(=O)(=O)N2CCCC2COCC(=O)NCC2CCCN(Cc3ccccc3)C2)c(C)c1 (stereo not shown) [Example 300, N-((1-benzylpiperidin-3-yl)methyl)-2-((1-(4-methoxy-2,6-dimethylphenylsulfonyl)pyrrolidin-2-yl)methoxy)acetamide] | 106 | 103 | 
